This note sets out measurements from US20170234881A1, “METHODS OF DIAGNOSING AND TREATING CANCER” (INSERM ( INSTITUT NATIONAL DE LA SANTÉ ET DE LA RECHERCHE …, priority 2014, published 2017).

Assay [1] concerns MCF7 cells. As to the kind of experiment: Cell invasion assay (matrigel-coated filters), MCF7. In kind it is cell-based, human. The following applies: concentration-dependent, level reached. The protocol: (§1) FIG. 2. OCDO is a tumor promoter in vitro and in vivo and its inhibition contributes to the anti-tumor effects of Tam and DDA. (A, B) Histograms representing the effect of OCDO or 17β-estrogen (E2) on MCF7 (A) and TS/A (B) cell proliferation after 24 h treatment using a colorimetric immunoassay measuring BrDU incorporation in DNA (C, D) Histogram representing the effect of OCDO on MCF7 (C) and TS/A (D) cell invasion. Data are the mean of three separate experiments (±s.e.m), *P<0.05, **P<0.01, ***P<0.001 (Student's t-test). (E, F) Mice were implanted s.c. with MCF7 (E) or TS/A (F) cells and animals (8 per group) were treated s.c. every day starting on the day of implantation with either the solvent vehicle or OCDO (16 μg/kg for MCF7 or 50 μg/kg for TS/A). Animals were monitored for tumour growth twice a week. The data are representative of three independent experiments. The mean tumor volume±s.e.m is shown, *P<0.05, **P<0.01, ***P<0.001 (analysis of variance (ANOVA), Dunnett's post test). (G) Mean (±s.e.m) of Ki67 positive cell number determined from IHC staining of MCF7 tumor sections from (E), n=8, *P<0.05 (Student's t-test) using HistoQuant, Pannoramic Viewer (3DHistech). […]
Invasion assays were carried out using Bio-Coat migration chambers (BD Falcon) with 8 μm filters previously coated with matrigel. […] The entire membranes were mounted on glass slides, and were counted under a microscope. […]

Assay [2] concerns MCF7 tumors. As to the kind of experiment: Growth of MCF7 tumors implanted s.c. into mice. In kind it is in vivo. Here is the method: as §1, with “The data are representative of three independent experiments. The mean tumor volume±s.e.m is shown, *P<0.05, **P<0.01, ***P<0.001 (analysis of variance (ANOVA), Dunnett's post test).” left out
(§2) Exponentially growing MCF7, ShMCF7, E0771, MDA-MB231, MDA-MB468 and TS/A cells were collected, washed twice in PBS and resuspended in PBS. […] Animals were examined daily, and body weights were measured twice per week. In all the experiments, the tumor volume was determined by direct measurement with a caliper and was calculated using the formula (width^2×length)/2. […]

Assay [3] concerns E0771 cells. As to the kind of experiment: Growth of E0771 tumors implanted s.c. into mice. In kind it is in vivo. The settings on record: mouse E0771 tumors, OCDO 50 μg/kg s.c. Here is the method:
as §1, with “The data are representative of three independent experiments. The mean tumor volume±s.e.m is shown, *P<0.05, **P<0.01, ***P<0.001 (analysis of variance (ANOVA), Dunnett's post test).” left out
as §2

Assay [4] has as its system MDA-MB468 cells. In words: Growth of MDA-MB468 tumors implanted s.c. into mice. In kind it is in vivo. The settings on record: human MDA-MB468 tumors, OCDO 16 μg/kg s.c. The protocol:
as §1, with “The data are representative of three independent experiments. The mean tumor volume±s.e.m is shown, *P<0.05, **P<0.01, ***P<0.001 (analysis of variance (ANOVA), Dunnett's post test).” left out
as §2

Assay [5] deals with HSD1-transfected MCF7 cells. As to the kind of experiment: Proliferation of 11βHSD1-transfected MCF7 cells (BrDU). In kind it is cell-based, human. The following applies: 5 μM OCDO for 24 h. Here is the method: FIG. 5. Ectopic expression of 11βHSD1 in MCF7 inhibits cell proliferation and OCDO reverses this effect. MCF7 cells were transfected by electroporation with a plasmid coding either the enzymes 11βHSD1 (HSD1) or the control empty vector (mock) and analyzed as followed: (A) the expression of 11βHSD1 was confirmed by immunoblotting using specific antibody against 11βHSD1 and normalized with actin; (B) The production of CT was determined by incubating the mock or the HSD1-transfected cells with ^14C-OCDO for 72 h at 37° C. The radioactive metabolites of interest were analyzed as in the legend of FIG. 4B. (C) The proliferation of the mock- or the HSD1-transfected MCF7 cells treated or not with 5 μM OCDO for 24 h were analyzed as in FIG. 2A. The results in B and C are the mean (±s.e.m) of three to five experiments, **P<0.01, ***P<0.001 (Student's t-test), ns: non specific.
MCF7 or HEK293T cells (5×10^6 cells) were transfected with 5 μg of the indicated plasmid using the NEON Transfection System and according to the manufacturer's recommendations. […] Several clones were analyzed by immunoblot analysis and real time RT-qPCR for the knock down of the expression of the protein of interest. […]

On to `CC(C)CCC[C@@H](C)[C@H]1CC[C@H]2[C@@H]3CC(=O)[C@@]4(O)C[C@@H](O)CC[C@]4(C)[C@H]3CC[C@]12C` [OCDO, 6-oxo-cholestan-3β,5α-diol], for which, in assay [1], the “invasiveness compared with the control” value stood at 6 fold. In assay [2] (MCF7 tumors in immunodeficient mice, OCDO 16 μg/kg s.c. every day), the “tumor growth compared with the control group” value is “significantly increased”. In addition, the “proliferative marker Ki67 in tumors compared with control-treated tumors” value in assay [2] (MCF7 tumors, IHC) is “increased”. The tumor growth result in assay [3] and in assay [4] was “stimulates the growth” in each case. In addition, the “effect on the decrease of cell proliferation induced by 11βHSD1 expression” value in assay [5] is recorded as “reversed this effect”.
